US20020155172A1, “Methods and compounds for decreasing cell toxicity or death” (priority 2000, published 2002)

What was measured:
RIP, FADD, and Daxx = assay: Apoptosis induced by overexpression of adapter proteins; type: cell-based
Experimental: FIG. 5G is a graph of the effects of Congo red on cell death induced by adapter protein oligomerization (Daxx, RIP, FADD).
HeLa cells expressing Q79 expanded polyglutamine repeats were treated with 100 μM Congo red, or 100 μM ZVAD (a positive control) for one hour prior to the addition of the apoptosis-inducing agent, and cell death was determined 48 hours later. […] Finally we tested whether Congo red can inhibit apoptosis induced by overexpression of caspase-1, -8, or -11.

HSP40 and HSP70 = assay: Expression of chaperone proteins; type: cell-based; conditions: Q79-expressing (HA-Q79) HeLa cells
Source text: We examined whether the destabilizing effect of Congo red on polyglutamine oligomers in HeLa cells expressing expanded polyglutamine repeats was caused indirectly through increased expression of endogenous chaperones (FIG. 5E). Lysates from Congo red-treated or control cells expressing expanded polyglutamine repeats (HA-[…]) were separated by SDS-PAGE and probed with anti-HSP70, anti-HSP40, and anti-HA antibodies to detect polyglutamine repeats.

[1] = system: HeLa cells transfected with Q79-GFP; assay: Q79-GFP aggregates in HeLa cells by fluorescence microscopy; type: cell-based; conditions: 100 μM
Experimental: FIG. 5I is a set of scanned images of HeLa cells expressing Q79-GFP and subsequently treated with Congo red (100 μM), or ZVAD (100 μM), as detected by fluorescence microscopy.
Changes in energy metabolism have been detected in brains of pre-symptomatic HD animal models, and in pre-symptomatic patients. We detected a pronounced decline in ATP levels upon expanded polyglutamine expression in cells as early as 24 hours. […] Expression of Q79-GFP in HeLa cells transfected with Q79-GFP and subsequently treated with Congo red (100 μM), or ZVAD (100 μM), is shown in FIG. 51.

Q79-GFP aggregates = assay: Decrease of pre-formed Q79-GFP aggregates in vitro; type: biochemical
Experimental: Q79-GFP was expressed and purified from bacteria using standard molecular biology techniques. These fusion proteins form aggregates in vitro which can be viewed under an inverted fluorescence microscope. The Q79-GFP aggregates were administered Congo red (1 nM to 100 μM) and the ability of Congo red to decrease the aggregate was visually assessed.
This assay was also carried out on Q79-GFP aggregates that were administered compounds known to disrupt other types of aggregates, for example, beta-amyloid fibril aggregates. The Q79-GFP aggregates were administered Iota-carrageenan, dextran, minocycline, rolitetracycline, or Chrysamine G Congo red (100 μM each), and visually examined for the effect of each compound on disruption of the aggregate, as well as the density and size of the aggregates.

R62 mice = assay: Rotarod motor performance, second study; type: in vivo; conditions: 10 rpm, maximum 210 seconds
Source text: FIG. 10F is a graph of the effect of PBS (vehicle; delivered intraperitoneally (IP)) or Congo red, infused intraperitoneally (IP), by intracerebroventricular cannula (ICV) implanted into the predetermined coordinates on the left ventricle, or by both routes, on motor performance, as assessed by latency to fall measurements using a rotorod.
In addition, the ability of Congo red to inhibit the formation as well as to disrupt preformed polyglutamine oligomers allowed us to examine the role of polyglutamine aggregates in neuronal dysfunction and degeneration characteristic of polyglutamine expansion diseases. In these studies, we used the animal model of Huntington's disease (R62), which expresses the truncated form of huntingtin with 139 CAG repeats Mangiarini et al. (supra). We took advantage of our finding that in addition to inhibiting polyglutamine oligomerization, Congo red also disrupts pre-formed oligomers, thus allowing assessment of the impact of Congo red on disease progression after formation of polyglutamine aggregates and the onset of symptoms. […]
The initial abnormal neurological signs of R62 mice include dyskinesia of the hindlimbs when mice were suspended by the tail, and irregular gait. […] The effect of Congo red on motor performance in R62 mice was also assessed by rotarod studies. […]

`Nc1c(/N=N/c2ccc(-c3ccc(/N=N/c4cc(S(=O)(=O)O)c5ccccc5c4N)cc3)cc2)cc(S(=O)(=O)O)c2ccccc12` [Congo red, diphenyldiazo-bis-alpha-napthylaminesulfonate] was tested, and the “apoptosis induced by overexpression of RIP, FADD, or Daxx” value (RIP, FADD, and Daxx) was “had no effect on apoptosis induced by overexpression of RIP, FADD, or Daxx”, the “expression of HSP40 or HSP70” value (HSP40 and HSP70) was “did not induce the expression of HSP40 or HSP70” and the “polyglutamine aggregates in cells” value [1] was “displayed fewer polyglutamine aggregates”. For the same molecule, the “decrease of pre-formed polyglutamine aggregates” value (Q79-GFP aggregates; 1 nM to 100 μM, visually assessed) was “decreased the pre-formed polyglutamine aggregates”, the “dissolution or disruption of pre-formed expanded polyglutamine repeat aggregates” value (Q79-GFP aggregates; 100 μM each, visually examined) was “dissolution or disruption of pre-formed expanded polyglutamine repeat aggregates were detected” and the “motor performance on rotarod” value (R62 mice) was “preserved”.
